In one experiment the target is T1, IN–GCN2 interaction (UniProt P04585+Q9P2K8).
T1 construct: expressed as a truncated version (192-1024) in fusion after a glutathione S-transferase tag; Recombinant full-length IN was expressed in E. coli BL21 pLys; purchased SignalChem (GCN2); IN made in house in E. coli BL21 pLys E12-11G; host or cells: E. coli BL21 pLys (IN)
Briefly: IN–GCN2 interaction assay (AlphaLISA). In kind it is binding, HIV-1 IN / human GCN2. As to conditions: pilot screen, single dose of 100 µM; read-out: inhibition of the IN–GCN2 interaction signal. An excerpt:
We developed an in vitro plate-based assay to monitor the interaction between GCN2 and IN using the AlphaLISA technology (Figure 1). Taking advantage of the tags present on each recombinant protein (6xHis for IN prepared “in-house”, and GST for GCN2 commercially available), we used specific beads that fluoresce only when they are in close proximity (<200 nm). The signal obtained (light count) is directly proportional to the binding of IN to GCN2 (homogenous solution assay at steady state).
IN–GCN2 interaction assay. Protein–protein interactions were monitored using the AlphaLISA technology (Perkin Elmer) taking advantage of the GST and 6xHis tags of GCN2 and IN, respectively. Accordingly, AlphaScreen GSH Donor beads and AlphaLISA Nickel Acceptor beads were used (Perkin Elmer). Reactions were carried out at room temperature by incubating GCN2 with drugs or DMSO for 5 min before addition of AlphaLISA Nickel Acceptor beads. After 5 min, IN was added to the reaction mixture and incubated for 20 min before adding the AlphaScreen GSH Donor beads. This interaction assay was performed in conditions similar to the in vitro phosphorylation assay, already described, using 25 nM GCN2 and 700 nM (except indicated otherwise) in a reaction buffer containing 50 mM Tris-HCl pH 7.5, 40 mM NaCl, 1 mM dithiothreitol (DTT), 0.05% Tween 20, 0.1% bovine serum albumin (BSA), 10 µg/mL of each donor and acceptor beads. Alpha signal was measured using an EnSight plate reader (Perkin Elmer) 120 min after the addition of the latest component of the reaction (unless indicated otherwise).

In experiment [1] the target is T2, IN's phosphorylation catalyzed by GCN2 (Homo sapiens, UniProt Q9P2K8).
T2 construct: expressed as a truncated version (192-1024) in fusion after a glutathione S-transferase tag; purchased SignalChem (GCN2); IN made in house in E. coli BL21 pLys E12-11G; host or cells: E. coli BL21 pLys (IN)
T2 sequence (Q9P2K8 192-1024): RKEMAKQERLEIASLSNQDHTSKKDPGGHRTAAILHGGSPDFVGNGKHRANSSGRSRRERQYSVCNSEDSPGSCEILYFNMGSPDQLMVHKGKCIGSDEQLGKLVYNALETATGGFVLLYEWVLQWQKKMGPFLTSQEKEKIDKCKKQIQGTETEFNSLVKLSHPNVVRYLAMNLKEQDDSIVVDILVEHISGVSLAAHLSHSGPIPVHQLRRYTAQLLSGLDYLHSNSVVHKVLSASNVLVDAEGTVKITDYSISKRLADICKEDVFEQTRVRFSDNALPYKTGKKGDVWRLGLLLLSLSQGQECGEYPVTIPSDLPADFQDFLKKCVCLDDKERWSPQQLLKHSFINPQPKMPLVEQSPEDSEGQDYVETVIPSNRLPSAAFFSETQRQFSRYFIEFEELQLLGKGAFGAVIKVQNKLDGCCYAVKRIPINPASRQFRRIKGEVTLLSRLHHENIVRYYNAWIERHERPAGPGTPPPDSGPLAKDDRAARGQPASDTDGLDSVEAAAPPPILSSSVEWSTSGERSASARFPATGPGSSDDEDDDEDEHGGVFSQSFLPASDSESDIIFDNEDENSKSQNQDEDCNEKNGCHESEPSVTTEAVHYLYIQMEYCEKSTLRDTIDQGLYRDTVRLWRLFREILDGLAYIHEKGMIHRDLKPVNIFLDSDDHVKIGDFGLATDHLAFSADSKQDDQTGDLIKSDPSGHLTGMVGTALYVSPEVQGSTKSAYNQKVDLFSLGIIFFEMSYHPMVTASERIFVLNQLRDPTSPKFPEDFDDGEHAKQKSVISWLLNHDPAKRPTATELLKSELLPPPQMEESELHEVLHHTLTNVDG
As to the kind of experiment: In vitro phosphorylation assay: phosphorylation of IN catalyzed by GCN2. In kind it is biochemical, human GCN2 / HIV-1 IN. On the procedure:
Enzymes. GCN2 was purchased from SignalChem (EIF2AK4, cat. #E12-11G). […] Recombinant full-length IN was expressed in E. coli BL21 pLys (IPTG induction) and purified on a nickel chelating column, as described. Integrity and purity were checked by direct Coomassie coloration of elution fractions on SDS-PAGE before dialysis to remove imidazole.
In vitro phosphorylation assay. […] Reactions (20 µL) were stopped after a 60 min incubation at 30 °C by adding 10 µL of loading buffer [80 mM Tris-HCl pH 6.8, 100 mM DTT, 10% glycerol, 1% sodium dodecyl sulfate (SDS) and 0.05% bromophenol blue]. Samples were then loaded onto a 10% denaturating SDS-PAGE. After protein separation (120 V for 120 min) the gel was stained using Coomassie Brilliant Blue R-250. Autoradiography was performed using an imaging plate (Fujifilm, Tokyo, Japan) and images were obtained with a FLA-5000 Imaging System (Fujifilm).

Another experiment concerns the target T3, GCN2 (Homo sapiens, UniProt Q9P2K8).
T3 construct: expressed as a truncated version (192-1024) in fusion after a glutathione S-transferase tag; purchased SignalChem E12-11G
T3 sequence (Q9P2K8 192-1024): T2 sequence (Q9P2K8 192-1024)
Briefly: In vitro phosphorylation assay: GCN2 activation (auto-phosphorylation). The experiment is classed as biochemical. As to conditions: without IN, read-out: GCN2 auto-phosphorylation signal, % of the DMSO control.

Each structure is given as a SMILES string.

By inhibition is commonly meant the change of the read-out against control, counted positive when it falls.

Regarding `O=C1c2c(O)ccc(O)c2C(=O)c2c(NCCNCCO)ccc(NCCNCCO)c21` [NSC279836, Mitoxantrone], the inhibition at 100 µM is 99.4% at IN–GCN2 interaction and around 65% in experiment [1] (single dose of 100 µM, compared to DMSO, read-out: decrease (inhibition) in IN phosphorylation). Also, the “concentration giving full inhibition of IN phosphorylation” value in experiment [1] (serial dilutions from 300 µM to 137 nM) came out at 300 µM. Besides, the “apparent IC50, IN phosphorylation” value in experiment [1] (serial dilutions from 300 µM to 137 nM, in words) is “low micromolar range”. On GCN2, the remaining activity at 100 µM is 145%.

The values above are taken from paper PMC8434491, “Targeting the Integrated Stress Response Kinase GCN2 to Modulate Retroviral Integration” (Molecules, 2021).
